Test results reported in patent EP3822285A1, “VARIANT NISIN PEPTIDES” (University College Cork-National University of Ireland, Cork, priority 2019, dated 2021).
Converted amounts (≈) assume the structure as drawn. “And” between values parts separate entries of the source, which are not always exact repeats. Equal entries are not always repeated. Marks after values point to notes of the source that are not given here.

Columns and labels:
Assay type in all cases: cell-based
[1] = tested on: Thermus thermophilus HB27; assay: Agar diffusion assay with cell free supernatant of producing strains; settings: zone diameter relative to Nisin A wild type (100)
Procedure: (§1) Agar diffusion assays were carried out in triplicate using nisin producing and indicator (T. thermophilus HB27 and T. scotoductus Se-1) strains. Both the producer and indicator strains were cultured as per conditions described above. One ml of overnight culture of indicators were added to 50ml of molten Castenholz agar, briefly swirled and poured. Wells were made using sterile glass pipette. To generate cell free supernatant from nisin producing strains, 10 mls of overnight cultures of the strains were centrifuged at 950g for 20 mins. The cell free supernatant was transferred to a sterile tube. 50 µl of cell free supernatant was added to wells described above. Plates were incubated at 55°C for 3 days and the zone of clearance measured.
(§2) The cell free supernatant of nisin A and nisin variant producing L. lactis was used to determine the bioactivity of these lantibiotics against T. thermophilus HB27 and T. scotoductus SE-1 using agar diffusion assays, with the zone of clearance representing the bioactivity of the producing strain (i.e., representing a combination of the amount of the peptide produced and the specific activity of that peptide). […] Among the variants tested were those with altered N-terminal domains. The N-terminal domain of nisin is important for binding with the pyrophosphate moiety of lipid II to mediate pore formation in the cell membrane. Lysine (K) at position 12, which serves as a small flexible region between ring B and C, and is one of among the 5 positively charged residues (K12, K22, K34, H27, […]) of nisin A that contributes to its cationic nature and its attraction to the cell envelope.

T. aquaticus = assay: Minimum inhibitory concentration assay (Thermus); settings: for MIC: pure peptide, mean of triplicate assays
Procedure: (§3) Minimum inhibitory concentration (MIC) determinations for gram negative Thermus strains were carried out in triplicate in round bottom microtitre plates (Corning). 96 well microtitre plates were pre-treated with bovine serum albumin (BSA) prior to addition of the peptides. Briefly, to each well of the microtire plates 200 µl of d.H2O (filtered with 0.2 µm filter) containing 1% (w/w) BSA was added and incubated at 37°C for 30 mins. The wells were washed with 200 µl of IX phosphate buffered saline (PBS) for 2 times after removing 1% BSA d.H2O. 100 µl of growth media, i.e., Castenholz, was added to each well. […] Target strains were grown overnight as per conditions mention above, 0.5 ml of overnight was subcultured in to 10 mls of fresh Castenholz medium and allowed to grow to an OD600 of ∼0.5. 20µl of this subculture was added to 980µl of media, 150µl of this dilution added to 14.85 ml of growth media. 100µl of this dilution added to each well resulting in a final inoculum of ∼10^5 cfu/ml in 200µl. The plates were incubated at 55° C for 3 days and the MIC was determined as the lowest concentration at which no growth was visible.
(§4) The bioactivity of cell-free supernatant can be influenced by altered diffusion rates, solubility, production or specific activity. To determine to what extent, if any, the bioactivity noted above is due to increased specific activity, nisin A (control) and the derivatives were purified and their molecular weights confirmed by MALDI TOF mass spectrometry (Table: 6) (Figure: 4). These peptides were used to perform minimum inhibitory concentration assays against six Thermus strains, i.e., T. thermophilus HB27, T. scotoductus SE-1, T. rehai, T. oshimai, T. aquaticus and T. brockianus.

T. brockianus = assay: Minimum inhibitory concentration assay (Thermus); settings: pure peptide, mean of triplicate assays
Procedure: as §3, §4

T. oshimai = assay: Minimum inhibitory concentration assay (Thermus); settings: pure peptide, mean of triplicate assays
Procedure: as §3, §4

T. rehai = assay: Minimum inhibitory concentration assay (Thermus); settings: for MIC: pure peptide, mean of triplicate assays
Procedure: as §3, §4

T. scotoductus SE-1 = assay: Minimum inhibitory concentration assay (Thermus); settings: pure peptide, mean of triplicate assays
Procedure: as §3, §4

T. thermophilus HB27 = assay: Minimum inhibitory concentration assay (Thermus); settings: pure peptide, mean of triplicate assays
Procedure: as §3, §4

Thermus scotoductus SE-1 = assay: Agar diffusion assay with cell free supernatant of producing strains; settings: zone diameter relative to Nisin A wild type (100)
Procedure: as §1, §2

C=C(NC(=O)[C@@H](NC(=O)[C@H](Cc1c[nH]cn1)NC(=O)[C@@H](NC(=O)[C@H](CO)NC(=O)[C@@H]1CS[C@@H](C)[C@H]2NC(=O)[C@H](C)NC(=O)[C@H](NC(=O)[C@H](CCC(N)=O)NC(=O)[C@H](C)NC(=O)[C@@H]3CCCN3C(=O)[C@@H]3CS[C@@H](C)[C@@H](NC(=O)[C@H](CCCCN)NC(=O)[C@@H]4CS[C@@H](C)[C@@H](NC(=O)[C@@H]5CSC[C@@H](NC(=O)/C(=C/C)NC(=O)[C@@H](N)[C@@H](C)CC)C(=O)N[C@@H]([C@@H](C)CC)C(=O)NC(=C)C(=O)N[C@@H](CC(C)C)C(=O)N5)C(=O)N5CCC[C@H]5C(=O)NCC(=O)N4)C(=O)NCC(=O)N[C@@H](C)C(=O)N[C@@H](CC(C)C)C(=O)N[C@@H](CCSC)C(=O)NCC(=O)N3)[C@H](C)SC[C@H](NC2=O)C(=O)N[C@@H](Cc2c[nH]cn2)C(=O)N1)[C@@H](C)CC)C(C)C)C(=O)N[C@@H](CCCCN)C(=O)O [PAQ]
% difference [1]: 138* (0.02) % | MIC (T. aquaticus): 0.0156 µM (≈ 0.0511 µg/mL) | MIC (T. brockianus): 0.0312 µM (≈ 0.102 µg/mL) | MIC (T. oshimai): 0.0039 µM (≈ 0.0128 µg/mL) | MIC (T. rehai): 0.0156 µM (≈ 0.0511 µg/mL) | MIC (T. scotoductus SE-1): 0.0625 µM (≈ 0.205 µg/mL) | MIC (T. thermophilus HB27): 0.0078 µM (≈ 0.0256 µg/mL)

C=C(NC(=O)[C@@H](NC(=O)[C@H](Cc1c[nH]cn1)NC(=O)[C@@H](NC(=O)[C@H](CO)NC(=O)[C@@H]1CS[C@@H](C)[C@H]2NC(=O)[C@H](C)NC(=O)[C@H](NC(=O)[C@H](CCCCN)NC(=O)[C@H](CCSC)NC(=O)[C@H](CC(N)=O)NC(=O)[C@@H]3CS[C@@H](C)[C@@H](NC(=O)[C@H](Cc4ccc(O)cc4)NC(=O)[C@@H]4CS[C@@H](C)[C@@H](NC(=O)[C@@H]5CSC[C@@H](NC(=O)/C(=C/C)NC(=O)[C@@H](N)[C@@H](C)CC)C(=O)N[C@@H]([C@@H](C)CC)C(=O)NC(=C)C(=O)N[C@@H](CC(C)C)C(=O)N5)C(=O)N5CCC[C@H]5C(=O)NCC(=O)N4)C(=O)NCC(=O)N[C@@H](C)C(=O)N[C@@H](CC(C)C)C(=O)N[C@@H](CCSC)C(=O)NCC(=O)N3)[C@H](C)SC[C@H](NC2=O)C(=O)N[C@@H](Cc2c[nH]cn2)C(=O)N1)[C@@H](C)CC)C(C)C)C(=O)N[C@@H](CCCCN)C(=O)O [K12Y]
% of wild type (Thermus scotoductus SE-1): 74% | % difference [1]: 94% | fold better activity than nisin A (T. aquaticus): 2 fold | MIC (T. aquaticus): 26.4 µg/L and 0.0078 µM | MIC (T. brockianus): 0.0312 µM (≈ 0.106 µg/mL) | MIC (T. oshimai): 0.0156 µM (≈ 0.0529 µg/mL) | fold better activity than nisin A (T. rehai): 4 fold | MIC (T. rehai): 6.6 µg/L and 0.00195 µM | MIC (T. scotoductus SE-1): 0.625 µM (≈ 2.12 µg/mL) | MIC (T. thermophilus HB27): 0.0156 µM (≈ 0.0529 µg/mL)

C=C(NC(=O)[C@@H](NC(=O)[C@H](Cc1c[nH]cn1)NC(=O)[C@@H](NC(=O)[C@H](CO)NC(=O)[C@@H]1CS[C@@H](C)[C@H]2NC(=O)[C@H](C)NC(=O)[C@H](NC(=O)[C@H](CCCCN)NC(=O)[C@H](C)NC(=O)[C@H](CC(N)=O)NC(=O)[C@@H]3CS[C@@H](C)[C@@H](NC(=O)[C@H](CCCCN)NC(=O)[C@@H]4CS[C@@H](C)[C@@H](NC(=O)[C@@H]5CSC[C@@H](NC(=O)/C(=C/C)NC(=O)[C@@H](N)[C@@H](C)CC)C(=O)N[C@@H]([C@@H](C)CC)C(=O)NC(=C)C(=O)N[C@@H](CC(C)C)C(=O)N5)C(=O)N5CCC[C@H]5C(=O)NCC(=O)N4)C(=O)NCC(=O)N[C@@H](C)C(=O)N[C@@H](CC(C)C)C(=O)N[C@@H](CCSC)C(=O)NCC(=O)N3)[C@H](C)SC[C@H](NC2=O)C(=O)N[C@@H](Cc2c[nH]cn2)C(=O)N1)[C@@H](C)CC)C(C)C)C(=O)N[C@@H](CCCCN)C(=O)O [M21A]
% difference [1]: 158* (0.001) % | MIC (T. aquaticus): 0.0078 µM (≈ 0.0257 µg/mL) | MIC (T. brockianus): 0.0625 µM (≈ 0.206 µg/mL) | MIC (T. oshimai): 0.0078 µM (≈ 0.0257 µg/mL) | MIC (T. rehai): 0.0312 µM (≈ 0.103 µg/mL) | MIC (T. scotoductus SE-1): 0.0312 µM (≈ 0.103 µg/mL) | MIC (T. thermophilus HB27): 0.0312 µM (≈ 0.103 µg/mL)

C=C(NC(=O)[C@@H](NC(=O)[C@H](Cc1c[nH]cn1)NC(=O)[C@@H](NC(=O)[C@H](CO)NC(=O)[C@@H]1CS[C@@H](C)[C@H]2NC(=O)[C@H](C)NC(=O)[C@H](NC(=O)[C@H](C)NC(=O)CNC(=O)[C@@H]3CCCN3C(=O)[C@@H]3CS[C@@H](C)[C@@H](NC(=O)[C@H](CCCCN)NC(=O)[C@@H]4CS[C@@H](C)[C@@H](NC(=O)[C@@H]5CSC[C@@H](NC(=O)/C(=C/C)NC(=O)[C@@H](N)[C@@H](C)CC)C(=O)N[C@@H]([C@@H](C)CC)C(=O)NC(=C)C(=O)N[C@@H](CC(C)C)C(=O)N5)C(=O)N5CCC[C@H]5C(=O)NCC(=O)N4)C(=O)NCC(=O)N[C@@H](C)C(=O)N[C@@H](CC(C)C)C(=O)N[C@@H](CCSC)C(=O)NCC(=O)N3)[C@H](C)SC[C@H](NC2=O)C(=O)N[C@@H](Cc2c[nH]cn2)C(=O)N1)[C@@H](C)CC)C(C)C)C(=O)N[C@@H](CCCCN)C(=O)O [PGA]
% difference [1]: 113% | MIC (T. aquaticus): 0.0312 µM (≈ 0.1 µg/mL) | MIC (T. brockianus): 0.0625 µM (≈ 0.2 µg/mL) | MIC (T. oshimai): 0.0078 µM (≈ 0.025 µg/mL) | MIC (T. rehai): 0.0156 µM (≈ 0.05 µg/mL) | MIC (T. scotoductus SE-1): 0.125 µM (≈ 0.401 µg/mL) | MIC (T. thermophilus HB27): 0.0156 µM (≈ 0.05 µg/mL)

C=C(NC(=O)[C@@H](NC(=O)[C@H](Cc1c[nH]cn1)NC(=O)[C@@H](NC(=O)[C@H](CO)NC(=O)[C@@H]1CS[C@@H](C)[C@H]2NC(=O)[C@H](C)NC(=O)[C@H](NC(=O)[C@H](CCCCN)NC(=O)[C@H](CCSC)NC(=O)[C@H](CC(N)=O)NC(=O)[C@@H]3CS[C@@H](C)[C@@H](NC(=O)[C@H](CC(C)C)NC(=O)[C@@H]4CS[C@@H](C)[C@@H](NC(=O)[C@@H]5CSC[C@@H](NC(=O)/C(=C/C)NC(=O)[C@@H](N)[C@@H](C)CC)C(=O)N[C@@H]([C@@H](C)CC)C(=O)NC(=C)C(=O)N[C@@H](CC(C)C)C(=O)N5)C(=O)N5CCC[C@H]5C(=O)NCC(=O)N4)C(=O)NCC(=O)N[C@@H](C)C(=O)N[C@@H](CC(C)C)C(=O)N[C@@H](CCSC)C(=O)NCC(=O)N3)[C@H](C)SC[C@H](NC2=O)C(=O)N[C@@H](Cc2c[nH]cn2)C(=O)N1)[C@@H](C)CC)C(C)C)C(=O)N[C@@H](CCCCN)C(=O)O [K12L]
% difference [1]: 120% | fold better activity than nisin A (T. aquaticus): 2 fold | MIC (T. aquaticus): 0.0078 µM (≈ 0.026 µg/mL) | MIC (T. brockianus): 0.0312 µM (≈ 0.104 µg/mL) | MIC (T. oshimai): 0.0078 µM (≈ 0.026 µg/mL) | MIC (T. rehai): 0.0078 µM (≈ 0.026 µg/mL) | MIC (T. scotoductus SE-1): 0.0625 µM (≈ 0.209 µg/mL) | MIC (T. thermophilus HB27): 0.0156 µM (≈ 0.0521 µg/mL)

C=C(NC(=O)[C@@H](NC(=O)[C@H](Cc1c[nH]cn1)NC(=O)[C@@H](NC(=O)[C@H](CO)NC(=O)[C@@H]1CS[C@@H](C)[C@H]2NC(=O)[C@H](C)NC(=O)[C@H](NC(=O)[C@H](CCCCN)NC(=O)[C@H](C)NC(=O)[C@H](C)NC(=O)[C@@H]3CS[C@@H](C)[C@@H](NC(=O)[C@H](CCCCN)NC(=O)[C@@H]4CS[C@@H](C)[C@@H](NC(=O)[C@@H]5CSC[C@@H](NC(=O)/C(=C/C)NC(=O)[C@@H](N)[C@@H](C)CC)C(=O)N[C@@H]([C@@H](C)CC)C(=O)NC(=C)C(=O)N[C@@H](CC(C)C)C(=O)N5)C(=O)N5CCC[C@H]5C(=O)NCC(=O)N4)C(=O)NCC(=O)N[C@@H](C)C(=O)N[C@@H](CC(C)C)C(=O)N[C@@H](CCSC)C(=O)NCC(=O)N3)[C@H](C)SC[C@H](NC2=O)C(=O)N[C@@H](Cc2c[nH]cn2)C(=O)N1)[C@@H](C)CC)C(C)C)C(=O)N[C@@H](CCCCN)C(=O)O [AAK]
% of wild type (Thermus scotoductus SE-1): 132* (0.004) % | MIC (T. aquaticus): 0.0625 µM (≈ 0.203 µg/mL) | MIC (T. brockianus): 0.0156 µM (≈ 0.0507 µg/mL) | MIC (T. oshimai): 0.0156 µM (≈ 0.0507 µg/mL) | MIC (T. rehai): 0.0156 µM (≈ 0.0507 µg/mL) | MIC (T. scotoductus SE-1): 0.0625 µM (≈ 0.203 µg/mL) | MIC (T. thermophilus HB27): 0.0312 µM (≈ 0.101 µg/mL)
